Measurements from US6902741B1, “Laminates containing an active substance transdermal system” (Jenapharm GmbH & Co. KG, priority 1999, dated 2005).

Format: physicochemical
Source text: In this manner, by use of solid polymer inclusions, optimum active substance loadings can be attained in different polymers. The active substance concentrations in the polymer inclusions can be stabilized at a very high level so that only minimum amounts of additional solvent are needed. In cases where the solubility of the drug in the adhesive is the primary factor limiting skin permeation, the method of preparation described under B) must be chosen.
When such solid active substance inclusions are introduced into adhesive matrix solutions in dissolved form, the high solubility of the inclusion polymer in the matrix solvent used, for example ethyl acetate, ethanol etc, is important. Rapid dissolution of the amorphous active substance is attained to a level far above its saturation solubility in the pure solvent. For example, at room temperature ethyl acetate dissolves only about 3 wt. % of a gestagenic steroid. By use of a corresponding solid active substance solution, the solubility of the steroid in the solution of ethyl acetate and nonadhesive polymer was increased to nearly 15 wt. % and kept stable. It should be kept in mind in this respect that, based on the volatile solvent ethyl acetate which is to be driven off from the adhesive matrix that is to be dried, the solubility was increased to more than 30 wt. %. […]

solubility in ethyl acetate: 3%
Compound: C#C[C@]1(O)C=C[C@H]2[C@@H]3CCC4=CC(=O)CC[C@@H]4[C@H]3CC[C@@]21CC [gestodene]
